pIC50: −log10 of the molar value.
Target: Prothrombin (Bos taurus, UniProt P00735)
Assay: thrombin inhibition, dose response, biochemical, fluorescence polarization, uHTS hits (AID 602369)

Question: With `O=C1N=C(Nc2ccc(Cl)cc2Cl)SC1=Cc1c[nH]c2ccccc12` as the compound, how does the pIC50 read?
Answer: 4.42

Question: `O=c1c(Cl)c(N=NCc2ccc(Br)cc2)cnn1-c1ccccc1` was tested. Which pIC50 did it give?
Answer: < 4.00

Question: With `CC[n+]1c(CC=Nc2ccccc2)oc2ccc(OC)cc21` as the compound, how does the pIC50 read?
Answer: 4.25

Question: How did the pIC50 turn out when `COC1=CC([N+](=O)[O-])=CC(/C=N/NC(=O)c2cc(-c3ccccc3)nc3ccccc23)C1=O` (stereo not given) was run?
Answer: 4.12

Question: How did the pIC50 turn out when `O=C1c2ccccc2SC1/C=N/c1cc([N+](=O)[O-])ccc1O` (stereo not given) [(2Z)-2-[[(5-nitro-2-oxidanyl-phenyl)amino]methylidene]-1-benzothiophen-3-one] was run?
Answer: 5.59

Question: With `Cc1[nH]c2ccccc2c1/C=C1\N=C(c2ccccc2)OC1=O` [(4Z)-4-[(2-methyl-1H-indol-3-yl)methylidene]-2-phenyl-5-oxazolone] as the compound, how does the pIC50 read?
Answer: 5.14

Question: How did the pIC50 turn out when `CCCCCCCCCCCC1N=C(N)N=C(CCCO)C1C(=O)OC` (stereo not given) [SMR001565729] was run?
Answer: 4.37

Question: With `O=[N+]([O-])c1ccc(N=NCc2c[nH]c3ccccc23)cc1` [MLS000573812] as the compound, how does the pIC50 read?
Answer: 5.69

Question: How did the pIC50 turn out when `O=C(N/N=C/C1C=C(Cl)C=C([N+](=O)[O-])C1=O)c1ccccc1NS(=O)(=O)c1cccs1` (stereo not given) [SMR000364876] was run?
Answer: 4.07

Question: How did the pIC50 turn out when `Oc1csc(=S)n1N=Cc1ccc(Cl)s1` [3-[(5-chlorothiophen-2-yl)methylideneamino]-2-sulfanylidene-1,3-thiazolidin-4-one] was run?
Answer: 4.57

Question: `CC(c1sc(S)nc1O)c1sc(S)nc1O` [5-[1-(4-oxidanylidene-2-sulfanylidene-1,3-thiazolidin-5-yl)ethyl]-2-sulfanylidene-1,3-thiazolidin-4-one] was tested. Which pIC50 did it give?
Answer: 4.28

Question: `CCN(CC)CCOC(=O)c1ccc(N=CC(C#N)c2nc(-c3ccc(OC)c(OC)c3)cs2)cc1` (stereo not given) [SMR000434079] was tested. Which pIC50 did it give?
Answer: 4.54

Question: `C=c1[nH]n(-c2nnc(C)c(=O)[nH]2)c(=O)c1=Cc1ccc(N(CC)CC)cc1` [3-{4-[1-(4-Diethylamino-phenyl)-meth-(Z)-ylidene]-3-methyl-5-oxo-4,5-dihydro-pyrazol-1-yl}-6-methyl-4H -[1,2,4]triazin-5-one] was tested. Which pIC50 did it give?
Answer: 4.30

Question: `CCOC(=O)C1C(=O)C(=Cc2ccc(-c3ccccc3C(=O)O)o2)SC1=Nc1ccc(OC)cc1` (stereo not given) was tested. Which pIC50 did it give?
Answer: 4.88

Question: With `COC1=CC([N+](=O)[O-])=CC(/C=N/NC(=O)c2cncc(Br)c2)C1=O` (stereo not given) [5-bromo-N'-[(E)-(5-methoxy-3-nitro-6-oxo-1-cyclohexa-2,4-dienylidene)methyl]-3-pyridinecarbohydrazide] as the compound, how does the pIC50 read?
Answer: 4.41

Question: How did the pIC50 turn out when `C=C(C=C(C)c1sc(S)nc1O)c1sc(S)nc1O` [MLS000723803] was run?
Answer: 4.06

Question: How did the pIC50 turn out when `CC1=NC(=O)NC(c2ccc(N3CCOCC3)cc2)C1C(=O)c1ccccc1` (stereo not given) [5-benzoyl-6-methyl-4-[4-(4-morpholinyl)phenyl]-3,4-dihydro-1H-pyrimidin-2-one] was run?
Answer: 4.81

Question: How did the pIC50 turn out when `CC1(C)CC(=O)C(=CNCC2CCN(C(=O)Cc3ccccc3)CC2)C(=O)C1` [5,5-dimethyl-2-[[[1-(2-phenylacetyl)piperidin-4-yl]methylamino]methylidene]cyclohexane-1,3-dione] was run?
Answer: < 4.00

Question: With `COC1=CC(=Cc2c(C)[nH]n(-c3cccc(Br)c3)c2=O)C=C(OC)C1=O` as the compound, how does the pIC50 read?
Answer: 4.41

Question: With `Cc1cc(=O)[nH]c(N=NCc2c(O)n(-c3ccccc3)c(=O)c3ccccc23)n1` [SMR000221270] as the compound, how does the pIC50 read?
Answer: 4.43

Question: How did the pIC50 turn out when `O=[N+]([O-])c1ccc(N=NCc2ccc[nH]2)cc1` [MLS000595102] was run?
Answer: 5.01

Question: With `Cc1[nH]n(-c2ccccc2)c(=O)c1C=C1NC(=S)NC1=O` [5-methyl-4-[(Z)-(5-oxo-2-sulfanylideneimidazolidin-4-ylidene)methyl]-2-phenyl-4H-pyrazol-3-one] as the compound, how does the pIC50 read?
Answer: 4.28

Question: With `CSc1nsc(CC=Nc2ccc(C(=O)O)cc2)c1C#N` [4-({2-[4-cyano-3-(methylsulfanyl)-5-isothiazolyl]vinyl}amino)benzenecarboxylic acid] as the compound, how does the pIC50 read?
Answer: 4.56

Question: With `O=C(N/N=C/C1C=C([N+](=O)[O-])C=CC1=O)c1cc(-c2ccccc2)nc2ccccc12` (stereo not given) [N'-[(E)-(3-nitro-6-oxo-1-cyclohexa-2,4-dienylidene)methyl]-2-phenyl-4-quinolinecarbohydrazide] as the compound, how does the pIC50 read?
Answer: 4.97

Question: With `O=[N+]([O-])c1ccc(N=NCc2cccn2-c2ccccc2)nc1` [SMR000161089] as the compound, how does the pIC50 read?
Answer: 4.53

Question: How did the pIC50 turn out when `C=c1[nH]c2ccc(C)cc2c1=Cc1c(N)n2oc(C)cc2nc1=O` [MLS000730959] was run?
Answer: 4.49

Question: How did the pIC50 turn out when `CN(CCO)c1ccc(CN=Nc2ccc([N+](=O)[O-])cc2S(=O)(=O)Nc2ccccc2C(=O)O)cc1` was run?
Answer: 4.44

Question: How did the pIC50 turn out when `O=C1C=CC([N+](=O)[O-])=CC1C=NN=C1NS(=O)(=O)c2ccccc21` (stereo not given) was run?
Answer: 4.43

Question: How did the pIC50 turn out when `NS(=O)(=O)c1ccc(N=CCC(=O)c2ccc3ccccc3c2)cc1` [4-(3-Naphthalen-2-yl-3-oxo-propenylamino)-benzenesulfonamide] was run?
Answer: 4.25

Question: `COc1cc(C=CC(=O)C2C(=O)NC(=O)N(CCc3ccccc3)C2=O)ccc1O` (stereo not given) [SMR000221203] was tested. Which pIC50 did it give?
Answer: 4.39

Question: With `C=CCN1C(=O)C(/C=N/c2cccc([N+](=O)[O-])c2)C(=O)N(CCCC)C1=O` (stereo not given) [MLS000543529] as the compound, how does the pIC50 read?
Answer: 4.37

Question: With `CCN(CC)CCOC(=O)c1ccc(N=CC(C#N)c2nc(-c3ccc4c(c3)OCO4)cs2)cc1` (stereo not given) [2-(diethylamino)ethyl 4-[[(Z)-2-[4-(1,3-benzodioxol-5-yl)-1,3-thiazol-2-yl]-2-cyano-ethenyl]amino]benzoate] as the compound, how does the pIC50 read?
Answer: 4.25

Question: `COc1cc2c3c(c1)C(C)=CC(C)(C)N3C(=O)C2=O` [MLS000688351] was tested. Which pIC50 did it give?
Answer: 4.94

Question: `COc1cc(C=c2[nH]c3n(c2=O)CCCCC=3)ccc1O` [SMR000149996] was tested. Which pIC50 did it give?
Answer: 4.53

Question: With `CC(=O)C1C(=O)OC(=CC=Cc2ccccc2)C1=O` (stereo not given) [3-acetyl-5-cinnamylidene-4-hydroxy-2-furanone] as the compound, how does the pIC50 read?
Answer: 4.30
